Test systems include RXF 393 renal; SN12C renal; LOX IMVI melanoma; HS 578T breast; A498 renal; SNB-19 CNS; HOP-62 NSCLC; M14 melanoma; EKVX NSCLC; TK-10 renal.
Experiment in all cases: NCI-60 cell line screen, 48 h

The results in this text go back to PubChem BioAssay (NCI).

Structures are written as SMILES. Values joined by “and” are separate entries in the source; they are usually repeats but may differ in a detail not shown here. Equal values may be shown once.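 Values below derive from 48-hour exposures of cells grown in 96-well plates, with endpoints linearly interpolated between the two concentrations bracketing the appropriate inhibition level. GI50: concentration for 50% inhibition of growth. The concentration for full growth arrest is given as TGI.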 *1 amine or outer side, *2 acyl side, *3 side chain or, on linkers, in order; H or OH if unused. Where a SMILES comes first, the peptide text is derived from it. Bridges are numbered along the chain shown (N, C = ends). [ ]: non-standard residue; d: D form. ξ: configuration not given here. X4 = CCC(C)C(N[*:1])C(O)CC(=O)O[C@H](C(=O)C(C)C(=O)[*:2])C(C)C; NMeY = CN[C@@H](Cc1ccc(O)cc1)C(=O)O; X9 = O=C([C@@H]1CC(O)CN1[*:1])[*:2]; ξNMeL = CNC(CC(C)C)C(=O)O; ξT = CC(O)C(N)C(=O)O Where only a bound is given, the exact number is not on record here.

For the molecule `O=C1N=C2c3c(sc4c3CCCC4)N=CN2C1N=Nc1ccc(Cl)cc1` (stereo not drawn), the GI50 in the test with RXF 393 renal was 36.6 µM; in the test on SN12C renal, 28.8 µM; with LOX IMVI melanoma, 29.8 µM; in the test on HS 578T breast it was 29.8 µM; in the test with A498 renal it was 21.3 µM; with SNB-19 CNS, 25.2 µM. For the same molecule, the GI50 in the test on HOP-62 NSCLC is 41.1 µM; with M14 melanoma it was 24.7 µM; with EKVX NSCLC, 7.79 µM; in the test with TK-10 renal, 37.5 µM. Also, the TGI with RXF 393 renal is over 100 µM; in the test with SN12C renal, over 100 µM; in the test on LOX IMVI melanoma, over 100 µM; with HS 578T breast it was over 100 µM; with A498 renal, 47.4 µM; with SNB-19 CNS it was over 100 µM. Also, the TGI in the test on HOP-62 NSCLC is over 100 µM; in the test on M14 melanoma, over 100 µM; in the test with EKVX NSCLC, 39.1 µM; with TK-10 renal, over 100 µM.

For the molecule `CCN(CC)c1ccc(/C=N/NC(=O)c2ccc(Nc3ccnc(C(F)(F)F)c3)cc2)c(O)c1`, the GI50 in the test with RXF 393 renal is 0.156 µM; with SN12C renal it was 0.395 µM; in the test with LOX IMVI melanoma, 0.14 µM; with HS 578T breast, 0.321 µM; in the test with A498 renal, 0.479 µM; in the test on SNB-19 CNS, 0.39 µM. The GI50 in the test on HOP-62 NSCLC is 0.187 µM; with M14 melanoma, 0.25 µM; with EKVX NSCLC, 0.167 µM; in the test with TK-10 renal, 0.42 µM. The TGI was 0.44 µM in the test on RXF 393 renal; over 100 µM in the test with SN12C renal; 0.922 µM in the test with LOX IMVI melanoma; 3.6 µM with HS 578T breast; 10.6 µM in the test on A498 renal; over 73.6 µM in the test on SNB-19 CNS. For the same molecule, the TGI with HOP-62 NSCLC is 1.07 µM; with M14 melanoma, 1.42 µM; in the test with EKVX NSCLC, 1.76 µM; in the test with TK-10 renal it was over 100 µM.

For `N#Cc1c(NC(=O)c2cccs2)[n+]([O-])c2ccccc2[n+]1[O-]`, the GI50 in the test on RXF 393 renal was over 100 µM; in the test on SN12C renal, over 100 µM; in the test on LOX IMVI melanoma, over 100 µM; with HS 578T breast it was 95.9 µM; with A498 renal, over 100 µM; with SNB-19 CNS, over 100 µM. Besides, the GI50 was over 100 µM in the test with HOP-62 NSCLC, over 100 µM in the test with M14 melanoma, 93.8 µM with EKVX NSCLC and over 100 µM in the test on TK-10 renal. The TGI in the test on RXF 393 renal, with SN12C renal, with LOX IMVI melanoma, in the test with HS 578T breast, in the test with A498 renal and with SNB-19 CNS was over 100 µM throughout. The TGI in the test with HOP-62 NSCLC, with M14 melanoma, in the test on EKVX NSCLC and in the test with TK-10 renal was over 100 µM throughout.

For `CNC(=O)c1cc(Oc2ccc3nc(NC(=O)Nc4ccc(Cl)c(Cl)c4)sc3c2)ccn1`, the GI50 with RXF 393 renal was 1.84 µM; in the test with SN12C renal, 3.92 µM; in the test with LOX IMVI melanoma it was 1.82 µM; in the test with HS 578T breast, 2.77 µM; in the test on A498 renal, 2.93 µM; in the test on SNB-19 CNS, 1.99 µM. Besides, the GI50 with HOP-62 NSCLC is 2.24 µM; with M14 melanoma, 2.13 µM; in the test with EKVX NSCLC it was 3.3 µM; in the test with TK-10 renal, 3.46 µM. For the same molecule, the TGI is 3.65 µM in the test with RXF 393 renal; over 100 µM in the test with SN12C renal; 3.52 µM in the test on LOX IMVI melanoma; 6.66 µM with HS 578T breast; 6.64 µM with A498 renal; 3.98 µM in the test on SNB-19 CNS. For the same molecule, the TGI in the test on HOP-62 NSCLC was 4 µM; with M14 melanoma it was 4.74 µM; in the test on EKVX NSCLC it was over 100 µM; in the test on TK-10 renal, 9.26 µM.

As to `CC1(C)OC2C(CO)OC(n3ccc(=O)[nH]c3=O)C2O1` (stereo not drawn), the TGI with RXF 393 renal, in the test with SN12C renal, in the test with LOX IMVI melanoma, in the test with HS 578T breast, with A498 renal and with SNB-19 CNS was over 100 µM throughout. Besides, the TGI in the test with HOP-62 NSCLC, in the test with M14 melanoma, in the test on EKVX NSCLC and in the test with TK-10 renal was over 100 µM throughout.

Consider `COc1cc2c(cc1OCCCCCOc1cc(-c3ccc(F)cc3)nc(C)n1)N=C[C@@H]1CCCN1C2=O`, for which the GI50 in the test with RXF 393 renal was over 32.9 µM; with SN12C renal it was over 44.2 µM; in the test on LOX IMVI melanoma, 11.1 µM; in the test with HS 578T breast it was over 47.5 µM; in the test on A498 renal, over 100 µM; in the test on SNB-19 CNS, over 46.2 µM. In addition, the GI50 in the test with HOP-62 NSCLC is over 50.2 µM; in the test on M14 melanoma it was over 45.5 µM; in the test on EKVX NSCLC it was over 50.1 µM; in the test with TK-10 renal, over 49.9 µM. The TGI in the test on RXF 393 renal was over 54.3 µM; in the test on SN12C renal, over 71.2 µM; in the test on LOX IMVI melanoma, 31 µM; with HS 578T breast, over 81.2 µM; in the test on A498 renal, over 100 µM; with SNB-19 CNS, over 100 µM. The TGI in the test on HOP-62 NSCLC is over 79.4 µM; in the test with M14 melanoma, over 65.7 µM; in the test with EKVX NSCLC it was over 81 µM; in the test on TK-10 renal, over 75.3 µM.

As for `CCC(C)C1NC(=O)C(NC(=O)C(CC(C)C)N(C)C(=O)[C@@H]2CC(O)CN2)C(C)OC(=O)[C@H](Cc2ccc(OC)cc2)N(C)C(=O)[C@@H]2CCCN2C(=O)[C@H](CC(C)C)NC(=O)C(C)C(=O)[C@H](C(C)C)OC(=O)CC1O` (stereo partly drawn) (H-[X9][ξNMeL][ξT][X4]LP[NMeY](Me); ester 3-C), the TGI in the test on RXF 393 renal was 0.0965 µM and 0.0648 µM; with SN12C renal it was 0.0759 µM and 0.682 µM; with LOX IMVI melanoma, 0.0294 µM and 0.101 µM; with HS 578T breast it was 0.0555 µM and 0.0238 µM; in the test on A498 renal, 0.628 µM and 2.45 µM; in the test on SNB-19 CNS, 0.45 µM and 0.148 µM. For the same molecule, the TGI in the test with HOP-62 NSCLC is 0.154 µM; in the test with M14 melanoma it was 0.11 µM and 0.126 µM; in the test with EKVX NSCLC, 0.266 µM; in the test on TK-10 renal, 1.25 µM and 7.31 µM. Further, the GI50 with SN12C renal is 0.0109 µM; with A498 renal, 0.283 µM; in the test on TK-10 renal it was 0.0873 µM.
